# Assay results published in paper PMC2682573, “A Novel Two Mode-Acting Inhibitor of ABCG2-Mediated Multidrug Transport and Resistance in Cancer Chemotherapy” (PLoS ONE, 2009).
# Columns and labels:
# ABCG2 [1] = molecular target: T1, ABCG2 (Homo sapiens, UniProt Q9UNQ0); experiment: mitoxantrone accumulation ([…]) and 5D3 conformational staining ([…]) in HEK293/ABCG2 cells; type: cell-based
# T1 sequence (Q9UNQ0 1-655): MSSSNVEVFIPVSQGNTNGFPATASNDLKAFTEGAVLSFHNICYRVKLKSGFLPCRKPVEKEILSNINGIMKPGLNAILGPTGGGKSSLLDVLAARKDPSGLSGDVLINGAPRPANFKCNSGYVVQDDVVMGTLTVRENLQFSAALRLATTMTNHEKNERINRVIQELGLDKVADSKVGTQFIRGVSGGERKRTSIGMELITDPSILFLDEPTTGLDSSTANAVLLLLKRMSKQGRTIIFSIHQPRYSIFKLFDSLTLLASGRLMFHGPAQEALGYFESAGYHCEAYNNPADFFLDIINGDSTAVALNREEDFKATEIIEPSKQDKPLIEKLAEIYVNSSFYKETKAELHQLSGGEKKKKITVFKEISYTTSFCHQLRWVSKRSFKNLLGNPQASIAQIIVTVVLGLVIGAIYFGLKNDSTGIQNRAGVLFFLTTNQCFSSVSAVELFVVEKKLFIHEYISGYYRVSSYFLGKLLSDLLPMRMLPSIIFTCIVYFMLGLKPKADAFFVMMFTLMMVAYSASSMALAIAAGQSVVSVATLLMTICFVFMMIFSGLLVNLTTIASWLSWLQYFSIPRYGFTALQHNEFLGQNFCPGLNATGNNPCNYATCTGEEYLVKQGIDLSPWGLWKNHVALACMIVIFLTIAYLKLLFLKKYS
# ABCG2 [2] = molecular target: T1, ABCG2; experiment: reference inhibitor; mitoxantrone accumulation, 5D3 conformational staining and sensitization IC50 in HEK293/ABCG2 cells; type: cell-based
# ABCG2 [3] = molecular target: T1, ABCG2; settings: hek293/abcg2 inside-out membrane vesicles
smiles,measurement,setting,value
CC(C)(C)NC(=O)CSc1nc2ccc(Nc3nc(N4CCOCC4)nc(N4CCOCC4)n3)cc2s1 [C6],mitoxantrone accumulation (3 μM) and 5D3 conformational staining (10 μM) in HEK2,ABCG2 [1],All three analogues had similar activity as PZ-39 in enhancing mitoxantrone accumulation
CC(=O)CSc1nc2ccc(Nc3nc(N4CCOCC4)nc(N4CCOCC4)n3)cc2s1 [C8],mitoxantrone accumulation (3 μM) and 5D3 conformational staining (10 μM) in HEK2,ABCG2 [1],All three analogues had similar activity as PZ-39 in enhancing mitoxantrone accumulation
O=C(CSc1nc2ccc(Nc3nc(Nc4ccccc4)nc(Nc4ccccc4)n3)cc2s1)N1CCCC1 [E2],mitoxantrone accumulation (3 μM) and 5D3 conformational staining (10 μM) in HEK2,ABCG2 [1],All three analogues had similar activity as PZ-39 in enhancing mitoxantrone accumulation
"COc1ccc2c3c([nH]c2c1)[C@H](C=C(C)C)N1C(=O)[C@@H]2CCCN2C(=O)[C@@H]1C3 [FTC, Fumitremorgin C]",IC50 (μM) / Inhibitor+MX ^a,ABCG2 [2],0.387 ± 0.054 µM
O=C1c2c(O)ccc(O)c2C(=O)c2c(NCCNCCO)ccc(NCCNCCO)c21 [mitoxantrone],Km,ABCG2 [3],2300 nM
